According to ChEMBL document CHEMBL4411296, “Design and development of Isatin-triazole hydrazones as potential inhibitors of microtubule affinity-regulating kinase 4 for the therapeutic management of cell proliferation and metastasis” (Eur J Med Chem, 2019):

Assays:
Type in all cases: functional
CCRF-CEM = test: Growth inhibition of human CCRF-CEM cells assessed as cell growth at 10 uM after 48 hrs by sulforhodamine B assay relative to control; conditions: read-out: Activity
RPMI-8226 = test: Growth inhibition of human RPMI8226 cells assessed as cell growth at 10 uM after 48 hrs by sulforhodamine B assay relative to control; conditions: RPMI-8226, 48 h, read-out: Activity
NCI-H23 = test: Growth inhibition of human NCI-H23 cells assessed as cell growth at 10 uM after 48 hrs by sulforhodamine B assay relative to control; conditions: NCI-H23, 48 h, read-out: Activity
NCI-H322M = test: Growth inhibition of human NCI-H322M cells assessed as cell growth at 10 uM after 48 hrs by sulforhodamine B assay relative to control; conditions: read-out: Activity
NCI-H460 = test: Growth inhibition of human NCI-H460 cells assessed as cell growth at 10 uM after 48 hrs by sulforhodamine B assay relative to control; conditions: NCI-H460, 48 h, read-out: Activity
NCI-H522 = test: Growth inhibition of human NCI-H522 cells assessed as cell growth at 10 uM after 48 hrs by sulforhodamine B assay relative to control; conditions: NCI-H522, 48 h, read-out: Activity
COLO 205 = test: Growth inhibition of human COLO205 cells assessed as cell growth at 10 uM after 48 hrs by sulforhodamine B assay relative to control; conditions: COLO 205, 48 h, read-out: Activity
HCT-15 = test: Growth inhibition of human HCT15 cells assessed as cell growth at 10 uM after 48 hrs by sulforhodamine B assay relative to control; conditions: HCT-15, 48 h, read-out: Activity
HT-29 = test: Growth inhibition of human HT-29 cells assessed as cell growth at 10 uM after 48 hrs by sulforhodamine B assay relative to control; conditions: HT-29, 48 h, read-out: Activity
KM12 = test: Growth inhibition of human KM12 cells assessed as cell growth at 10 uM after 48 hrs by sulforhodamine B assay relative to control; conditions: KM12, 48 h, read-out: Activity
SW-620 = test: Growth inhibition of human SW620 cells assessed as cell growth at 10 uM after 48 hrs by sulforhodamine B assay relative to control; conditions: SW-620, 48 h, read-out: Activity
SF-539 = test: Growth inhibition of human SF539 cells assessed as cell growth at 10 uM after 48 hrs by sulforhodamine B assay relative to control; conditions: SF-539, 48 h, read-out: Activity
U-251 = test: Growth inhibition of human U251 cells assessed as cell growth at 10 uM after 48 hrs by sulforhodamine B assay relative to control; conditions: U-251, 48 h, read-out: Activity
LOX IMVI = test: Growth inhibition of human LOXIMVI cells assessed as cell growth at 10 uM after 48 hrs by sulforhodamine B assay relative to control; conditions: read-out: Activity
MDA-MB-435 = test: Growth inhibition of human MDA-MB-435 cells assessed as cell growth at 10 uM after 48 hrs by sulforhodamine B assay relative to control; conditions: MDA-MB-435, 48 h, read-out: Activity
SK-MEL-5 = test: Growth inhibition of human SK-MEL-5 cells assessed as cell growth at 10 uM after 48 hrs by sulforhodamine B assay relative to control; conditions: SK-MEL-5, 48 h, read-out: Activity
UACC-62 = test: Growth inhibition of human UACC62 cells assessed as cell growth at 10 uM after 48 hrs by sulforhodamine B assay relative to control; conditions: UACC-62, 48 h, read-out: Activity
IGROV-1 = test: Growth inhibition of human IGROV1 cells assessed as cell growth at 10 uM after 48 hrs by sulforhodamine B assay relative to control; conditions: IGROV-1, 48 h, read-out: Activity
NCI/ADR-RES = test: Growth inhibition of human NCI/ADR-RES cells assessed as cell growth at 10 uM after 48 hrs by sulforhodamine B assay relative to control; conditions: read-out: Activity
A498 = test: Growth inhibition of human A498 cells assessed as cell growth at 10 uM after 48 hrs by sulforhodamine B assay relative to control; conditions: A498, 48 h, read-out: Activity
UO-31 = test: Growth inhibition of human UO31 cells assessed as cell growth at 10 uM after 48 hrs by sulforhodamine B assay relative to control; conditions: UO-31, 48 h, read-out: Activity
PC-3 = test: Growth inhibition of human PC3 cells assessed as cell growth at 10 uM after 48 hrs by sulforhodamine B assay relative to control; conditions: PC-3, 48 h, read-out: Activity
MCF7 = test: Growth inhibition of human MCF7 cells assessed as cell growth at 10 uM after 48 hrs by sulforhodamine B assay relative to control; conditions: MCF7, 48 h, read-out: Activity
MDA-MB-231 = test: Growth inhibition of human MDA-MB-231 cells assessed as cell growth at 10 uM after 48 hrs by sulforhodamine B assay relative to control; conditions: MDA-MB-231, 48 h, read-out: Activity
Hs-578T = test: Growth inhibition of human Hs 578T cells assessed as cell growth at 10 uM after 48 hrs by sulforhodamine B assay relative to control; conditions: read-out: Activity
T47D = test: Growth inhibition of human T47D cells assessed as cell growth at 10 uM after 48 hrs by sulforhodamine B assay relative to control; conditions: read-out: Activity

SMILES	growth at 10 µM (CCRF-CEM) [%]	growth at 10 µM (RPMI-8226) [%]	growth at 10 µM (NCI-H23) [%]	growth at 10 µM (NCI-H322M) [%]	growth at 10 µM (NCI-H460) [%]	growth at 10 µM (NCI-H522) [%]	growth at 10 µM (COLO 205) [%]	growth at 10 µM (HCT-15) [%]	growth at 10 µM (HT-29) [%]	growth at 10 µM (KM12) [%]	growth at 10 µM (SW-620) [%]	growth at 10 µM (SF-539) [%]	growth at 10 µM (U-251) [%]	growth at 10 µM (LOX IMVI) [%]	growth at 10 µM (MDA-MB-435) [%]	growth at 10 µM (SK-MEL-5) [%]	growth at 10 µM (UACC-62) [%]	growth at 10 µM (IGROV-1) [%]	growth at 10 µM (NCI/ADR-RES) [%]	growth at 10 µM (A498) [%]	other results
COc1ccc(Cn2cc(C(=O)N/N=C3/C(=O)Nc4ccc(F)c(Cl)c43)nn2)cc1	109	116	98	105	108	84	115	113	98	101	106	111	103	100	99.3	99.9	108	110	104	91.3	growth at 10 µM (UO-31): 92.4%; growth at 10 µM (PC-3): 105%; growth at 10 µM (MCF7): 91.8%; growth at 10 µM (MDA-MB-231): 109%; growth at 10 µM (Hs-578T): 112%; growth at 10 µM (T47D): 110%
COc1ccc(Cn2cc(C(=O)N/N=C3/C(=O)Nc4c(Cl)cccc43)nn2)cc1	106	106	99.3	101	99.7	84	114	107	97	107	99.7	108	102	93.8	101	101	102	103	105	93.8	growth at 10 µM (UO-31): 93.5%; growth at 10 µM (PC-3): 96.7%; growth at 10 µM (MCF7): 84.3%; growth at 10 µM (MDA-MB-231): 98.5%; growth at 10 µM (Hs-578T): 97.5%; growth at 10 µM (T47D): 100%
COc1ccc(Cn2cc(C(=O)N/N=C3/C(=O)Nc4ccc(F)cc43)nn2)cc1	95	99.1	99.5	102	106	86.1	111	103	91.8	95.8	103	107	99.9	102	103	103	88.6	101	96.7	83.4	growth at 10 µM (UO-31): 93.2%; growth at 10 µM (PC-3): 98.4%; growth at 10 µM (MCF7): 89.5%; growth at 10 µM (MDA-MB-231): 106%; growth at 10 µM (Hs-578T): 111%; growth at 10 µM (T47D): 85.9%
COc1ccc(Cn2cc(C(=O)N/N=C3/C(=O)Nc4ccc(C)cc43)nn2)cc1	98.1	105	104	102	105	83.6	107	111	87.1	95.4	104	103	105	102	101	91.7	94.6	109	100	91.6	growth at 10 µM (UO-31): 95%; growth at 10 µM (PC-3): 97.3%; growth at 10 µM (MCF7): 89.2%; growth at 10 µM (MDA-MB-231): 110%; growth at 10 µM (Hs-578T): 106%; growth at 10 µM (T47D): 104%
COc1ccc(Cn2cc(C(=O)N/N=C3/C(=O)Nc4ccc(Cl)cc43)nn2)cc1	94.7	109	104	104	102	90.6	117	109	93.7	97.7	99.7	106	107	108	104	96.7	101	106	115	96.6	growth at 10 µM (UO-31): 90.7%; growth at 10 µM (PC-3): 94.9%; growth at 10 µM (MCF7): 91.5%; growth at 10 µM (MDA-MB-231): 113%; growth at 10 µM (Hs-578T): 112%; growth at 10 µM (T47D): 101%
COc1ccc(Cn2cc(C(=O)N/N=C3/C(=O)Nc4ccccc43)nn2)cc1	104	105	103	97.9	109	87.8	108	105	99.2	101	101	108	92.2	102	100	102	96.7	97.5	97.2	96	growth at 10 µM (UO-31): 84.8%; growth at 10 µM (PC-3): 103%; growth at 10 µM (MCF7): 96.5%; growth at 10 µM (MDA-MB-231): 101%; growth at 10 µM (Hs-578T): 109%; growth at 10 µM (T47D): 113%
COc1ccc(Cn2cc(C(=O)N/N=C3/C(=O)Nc4c(F)cccc43)nn2)cc1	90.2	89.7	90.1	97.5	105	88.6	95	99.5	86.5	101	92.7	92.7	94.6	97.8	102	99.3	89.3	91.1	96.9	113	growth at 10 µM (UO-31): 77%; growth at 10 µM (PC-3): 83.3%; growth at 10 µM (MCF7): 94.1%; growth at 10 µM (MDA-MB-231): 96.3%; growth at 10 µM (Hs-578T): 101%; growth at 10 µM (T47D): 66.8%
COc1ccc(Cn2cc(C(=O)N/N=C3/C(=O)Nc4ccc(Br)cc43)nn2)cc1	92.5	100	102	102	111	89.1	115	105	88.5	104	107	104	105	107	101	98.3	97.2	105	103	97.1	growth at 10 µM (UO-31): 91.5%; growth at 10 µM (PC-3): 99.8%; growth at 10 µM (MCF7): 86.3%; growth at 10 µM (MDA-MB-231): 108%; growth at 10 µM (Hs-578T): 114%; growth at 10 µM (T47D): 106%
